Data set [1] deals with CT26 colon carcinoma cell line. The experiment in a line: Histologic analysis (hematoxylin and eosin) of tumor tissues. Type of data set: in vivo, mice. Particulars: 10 mg/kg intraperitoneal; 8, 24 and 48 hours after injection; with increasing exposure time; from the central part of the tumors. The method, then:
(§1) Seven-week-old, female, specific-pathogen-free (BALB/c) white mice (weight: approximately 20 g) purchased from ORIENTBIO Inc. (Seoul Korea) were subcutaneously injected with 2×10^6 cells of the CT26 colon carcinoma cell line per mouse. When the tumor size reached 3 mm in diameter, the control group was injected with a phosphate buffered saline (PBS) solution with 5% dextrose while the experimental group was intraperitoneally injected with 100 μL of KML001 at a concentration of 10 mg/kg with 5% dextrose. At 8, 24 and 48 hours after injection, liver, spleen and tumor tissue samples were taken and placed into a 37% solution of formaldehyde for 24 hours. The tissues were inserted into paraffin and sectioned at 4 μm on a microtome (made by SLEE MAINZ GmbH in Germany) and the sections were placed on slides.

The nature of data set [2]: Histologic analysis of normal organ tissues for ischemic damage. Type of data set: in vivo, mice. Conditions: 10 mg/kg intraperitoneal; 8, 24 and 48 hours after injection. The method, then:
as §1

Data set [3] has as its system β-tubulin mRNA. As to the kind of experiment: RT-PCR of tubulin mRNA from HUVECs. Type of data set: cell-based, Human. Particulars: 5 uM, 10 uM and 20 uM, 24 hours and 48 hours after treatment. Here is the method: To determine whether the level of tubulin gene expression is responsible for the change in amount of tubulin protein observed in Example 5, RT-PCR was performed. HUVECs (obtained from ATCC) were cultivated in F25 culture flasks containing F-12K (Sigma) medium supplemented with 10% FBS and endothelial cell growth supplement (ECGS, E2759, Sigma). After cultivation for 24 hours, the cells were treated with sodium meta arsenite at concentrations of 5 uM, 10 uM and 20 uM. […] Total RNA was extracted using Trizol (Invitrogen, USA) and alcohol precipitation. 1 ug of total RNA was used for reverse transcriptase and dT was used for cDNA synthesis. The primer for synthesized cDNA and α-tubulin (sense: 5′-ATTGTGCCTTCATGGTAGAC-3′ (SEQ ID NO. 1), antisense: 5′-TTCTGTCAGGTCAACATTCA-3′) (SEQ ID NO. 2), the primer for β-tubulin (sense: 5′-AACGACCTCGTCTCTGAGTA-3′ (SEQ ID NO. 3), antisense: 5′-AATTCTGAGGGAGAGGAAAG-3′) (SEQ ID NO. 4) and GAPDH primer set (sense: 5′-ACCACTTTGTCAAGCTCATT-3′ (SEQ ID NO. 5), antisense: 5′-AGTGAGGGTCTCTCTCTTCC-3′) (SEQ ID No. 6) were used for denaturation at 95° C. for four minutes. After the reactions at 23 cycles at 95° C. for 30 seconds, at 52° C. for 30 seconds and at 72° C. for 40 seconds, PCR was performed at 72° C. for four minutes. The PCR product was confirmed by 1.5% agarose gel electrophoresis.

Data set [4] deals with microtubules. As to the kind of experiment: Immunohistochemistry of microtubules in HUVECs (confocal microscopy). Type of data set: cell-based, Human. Conditions: 1 uM, 5 uM and 10 uM, 24 and 48 hours, concentration dependent. Here is the method:
HUVECs were cultured in a confocal dish (made by SPL, Korea) with F-12K (Sigma) medium containing 10% FBS and endothelial cell growth supplement (ECGS, E2759, Sigma). After cultivation for 24 hours, the cells were treated with sodium meta arsenite at a concentration of 1 uM, 5 uM and 10 uM. At 24 hours and 48 hours after treatment, the cells were fixed with 3.7% paraformaldehyde at room temperature for 10 minutes. After washing with phosphate buffered saline (PBS) solution three times, the cells were treated with 0.15% Triton X-100 for 15 minutes and then washed three times with PBS solution. After blocking with 2% bovine serum albumin (BSA, Sigma) at room temperature for 60 minutes, the cells were washed three times with PBS solution. Monoclonal antibody against α-tubulin (SantaCruze, sc-32293) was reacted with the cells at room temperature for one hour and then the cells were washed three times with the PBS solution. The cells were then reacted with rat anti-mouse IgG1 secondary antibody (Pharmigen, #A85-1) conjugated to FITC. After being washed three times with PBS solution, they were analyzed using a confocal laser scanning microscope (OLYMPUS FV500,1×81).

Data set [5] concerns CT26 colon carcinoma cells. As to the kind of experiment: Anti-tumor effect in mice bearing subcutaneous CT26 tumors, alone or with irinotecan. Type of data set: in vivo. The method, then: Female BALBc mice bearing subcutaneous CT26 colon carcinoma cells were injected intraperitoneally with sodium meta arsenite (10/mg/kg body weight) or irinotecan alone, or co-administered weekly for four weeks.

Data set [6] has as its system CT26 (mouse colon cancer). As to the kind of experiment: DCE-MRI of tumor vascularity (Kep) in CT26 tumor mice. Type of data set: in vivo. The method, then:
To determine whether the occurrence of central necrosis of tumors 24 hours after treatment was caused by the reduction of vascularity, DCE-MRI was used before the medication was administered and 24 hours after administration.
Inoculate CT26 (mouse colon cancer) 2×10^6 cell subcutaneously into mice on the upper parts of their thighs.
After checking the tumor size between 6 to 10 mm, acquire images through MRI.
Image Acquisition: Use a magnetic resonance imaging device (i.e., 3 Tesla Intera human clinical scanner; Philips medical systems) and a mouse coil with an inner diameter of 4 cm to get images. Acquire images before the drug is administered and those 24 hours after that for two days.
MR Pulse Sequence as follows: Dynamic Contrast enhanced MRI scan: FOV (mm)=50×35; RFOV (%)=71; Matrix scan=112; reconstruction=224; TR/TE (ms)=12/4.0; slice thickness=1 mm; slice number=11; dynamic scans=60.
i. Conduct an experiment to the subjects under anesthesia by using an inhalation anesthetic mixing 1.5% isoflurane in 100% oxygen at a flow rate of 1 L/min.
ii. Cannulate an intravenous injection line through the tail vein to inject a contrast agent.
iii. Use Gd-DTPA (Magnevist, Schering, Germany, 281 mg/kg) as a contrast agent and get pre-contrast images before injecting the contrast agent and post-contrast images after injecting it.
iv. After getting the images, inject KML001 (10 mg/kg) and Arsenic trioxide (7.5 mg/kg) intraperitoneally.
v. Get images through a dynamic scan again 24 hours after injection.
Accordingly, the groups of animals with which the DCE-MRI data was obtained are as follows: Group of animals treated with ATO: n=4, Group of animals treated with Saline: n=4 and Group of animals treated with KML001: n=6.
As the low data in MRI was mapped from each result of the DCE-MRI to the positive control group of animals treated with ATO, the negative control group of animals treated with saline and the experimental group of animals treated with KML001, Kep values important for tumor vascularity were calculated. Kep (rate constant) is the back diffusion rate constant from interstitial space to vascular space, reflecting leakage of tumor vessels, i.e., a measurement of vascularity.

As for `O=[As][O-].[Na+]` [sodium meta arsenite], the “scope of necrotic cell death in the tumor tissues” value in data set [1] is on record as “observed to increase”. In addition, in data set [2], the “ischemic damage in liver, spleen or kidney tissues” value is reported as “No ischemic damage was observed”. The “β-tubulin mRNA level” value in data set [3] is reported as “no change”. Moreover, in data set [4], the “total amount of microtubules” value is “reduction in the total amount of microtubules”. In data set [5] (sodium meta arsenite administered 24 hours or 72 hours after irinotecan, weekly for four weeks), the tumor growth delay entry was “Significant tumor growth delay”. In addition, the tumor regrowth entry in data set [5] (sodium meta arsenite alone, 10 mg/kg intraperitoneal) is recorded as “regrowth was observed from the periphery after two days”. For the same compound, the “necrosis of the tumor” value in data set [5] (sodium meta arsenite alone, 10 mg/kg intraperitoneal, by 24 hours after treatment) is recorded as “Massive necrosis in the central part of the tumor”. For the same compound, the “Kep values (back diffusion rate constant, tumor vascularity)” value in data set [6] (24 hours after intraperitoneal injection vs pre-treatment, KML001 10 mg/kg, ATO 7.5 mg/kg) is “significantly reduced”. Besides, in data set [6] (24 hours after treatment), the “contrast enhancement of the tumors in the MRI” value is given as “decreased”.

Source of the values: patent US20120251628A1, “COMPOSITIONS AND METHODS FOR TREATMENT OF CANCER” (priority 2011, published 2012).
